# Reference: patent publication EP4424671A1, “NOVEL TRICYCLIC DERIVATIVE COMPOUND AND USE THEREOF” (Huchembio Co., Ltd., priority 2021, dated 2023)
# Test system: STAT3 transcriptional activity
# Assay: STAT3 transcriptional activity inhibitory effect, luciferase reporter assay with IL-6 stimulation
# Type: cell-based, human
# Conditions: for STAT3 transcriptional activity inhibitory effect % inhibition, 50-70% / inhibition at 1 µM / STAT3 transcriptional activity inhibitory effect % inhibition, 70% or more: IL-6 (10 ng/mL), 24 hours, HEK293 cells with STAT3 promoter and luciferase reporter; for inhibition at 1 µM: Homo sapiens, read-out: STAT3 transcriptional activity inhibitory effect % inhibition, 50% or less; for STAT3 activity inhibitory effect (in words): compounds at 1 µM compared with BBI-608 at 3 µM
# Method: For HEK293 cells, an immortalized human kidney cell line, transformed HEK293 cells, in which an STAT3 promoter and a luciferase reporter were stably expressed, were used. The HEK293 cells, in which the STAT3 promoter was stably expressed, were cultured in a cell incubator at 5% CO2 and 37°C using an MEM (10% FBS) medium, and then an inhibitory effect on STAT3 transcriptional activity was confirmed by the following method.
# First, HEK293 cells, in which the STAT3 promoter was stably expressed, were inoculated into a 96-well plate (white, clear bottom culture plate) at a density of 2X 10^4 cells/well, and then cultured in an incubator at 37°C and 5% CO2 for 24 hours. Then, the compound synthesized according to the above synthesis example (1 µM) or BBI-608 (Napabucasin; comparative group 3 µM) and IL-6 (10 ng/mL) were treated together, and reacted in an incubator at 37°C and 5% CO2 for 24 hours. Afterwards, the culture medium in the 96-well plate was removed, and the cells were lysed by treatment with Passive Lysis Buffer (Promega/Cat. Number E1941). Luciferase activity was tested using the Luciferase Assay System (Promega/Cat. Number E1501), and a luminescence value was measured using a microplate reader. A well not treated with IL-6 (10 ng/mL) without test substance treatment was used as a negative control, and a well treated with IL-6 (10 ng/mL) without test substance treatment was used as a positive control. A degree of STAT3 transcriptional activity inhibitory effect by the compound of the present invention was evaluated by comparing the luminescence values from each well.
Compound,inhibition at 1 µM (compound concentration of 1 µM) [%],"STAT3 transcriptional activity inhibitory effect % inhibition, 70% or more (compound concentration of 1 µM)",STAT3 activity inhibitory effect (in words),further results
"CC(=O)c1cc2c(o1)C(=O)c1ccccc1C2=O [BBI-608, Napabucasin, reference compound]",–,–,–,"STAT3 transcriptional activity inhibitory effect % inhibition, 50-70% (comparative group at 3 uM): ○ (50-70%)"
"O=C1C(=O)c2cc(-c3cncc4ccccc34)ccc2-c2ccc(Br)cc21 [Compound 2, 2-bromo-7-(isoquinolin-4-yl)phenanthrene-9,10-dione]",≤ 50,–,–,–
"O=c1c2ccccc2oc2ccc(-c3cncc4ccccc34)cc12 [Compound 3, 2-(isoquinolin-4-yl)-9H-xanthen-9-one]",≤ 50,–,–,–
"O=c1c2ccccc2sc2ccc(-c3cncc4ccccc34)cc12 [Compound 4, 2-(isoquinolin-4-yl)-9H-thioxanthen-9-one]",–,–,–,"STAT3 transcriptional activity inhibitory effect % inhibition, 50-70% (compound concentration of 1 µM): ○ (50-70%)"
"O=C1c2ccccc2-c2ccc(-c3cncc4nccnc34)cc21 [Compound 5, 2-(pyrido[3,4-b]pyrazin-8-yl)-9H-fluoren-9-one]",–,–,–,"STAT3 transcriptional activity inhibitory effect % inhibition, 50-70% (compound concentration of 1 µM): ○ (50-70%)"
"O=C1c2ccccc2-c2ccc(-c3cncc4cccnc34)cc21 [Compound 7, 2-(1,6-naphthyridin-8-yl)-9H-fluoren-9-one]",–,○ (70% or more),excellent STAT3 activity inhibitory effect,–
"O=C1c2ccccc2-c2ccc(-c3nccc4ncccc34)cc21 [Compound 8, 2-(1,6-naphthyridin-5-yl)-9H-fluoren-9-one]",–,○ (70% or more),excellent STAT3 activity inhibitory effect,–
"O=C1c2ccccc2-c2ccc(-c3cnn4ccccc34)cc21 [Compound 9, 2-(pyrazolo[1,5-a]pyridin-3-yl)-9H-fluoren-9-one]",–,○ (70% or more),excellent STAT3 activity inhibitory effect,–
"O=C1c2ccccc2-c2ccc(-c3cnc4ccccn34)cc21 [Compound 10, 2-(imidazo[1,2-a]pyridin-3-yl)-9H-fluoren-9-one]",≤ 50,–,–,–
"c1ccc2c(-c3ccc4c(c3)sc3ccccc34)cncc2c1 [Compound 11, 4-(dibenzo[b,d]thiophen-3-yl)isoquinoline]",≤ 50,–,–,–
"c1ccc2c(-c3ccc4c(c3)oc3ccccc34)cncc2c1 [Compound 12, 4-(dibenzo[b,d]furan-3-yl)isoquinoline]",≤ 50,–,–,–
"c1ccc2c(-c3ccc4c(c3)[nH]c3ccncc34)cncc2c1 [Compound 13, 7-(isoquinolin-4-yl)-5H-pyrido[4,3-b]indole]",–,○ (70% or more),excellent STAT3 activity inhibitory effect,–
"O=C1c2ccccc2-c2ccc(-c3cncc4ccccc34)cc21 [Compound 14, 2-(isoquinolin-4-yl)-9H-fluoren-9-one]",–,○ (70% or more),excellent STAT3 activity inhibitory effect,–
"c1ccc2c(-c3ccc4c(c3)[nH]c3ccccc34)cncc2c1 [Compound 15, 2-(isoquinolin-4-yl)-9H-carbazole]",–,–,–,"STAT3 transcriptional activity inhibitory effect % inhibition, 50-70% (compound concentration of 1 µM): ○ (50-70%)"
"c1ccc2c(-c3ccc4c5c([nH]c4c3)CCCC5)cncc2c1 [Compound 16, 7-(isoquinolin-4-yl)-2,3,4,9-tetrahydro-1H-carbazole]",–,–,–,"STAT3 transcriptional activity inhibitory effect % inhibition, 50-70% (compound concentration of 1 µM): ○ (50-70%)"
"O=C1c2ccccc2-c2ccc(-c3cccc4ccncc34)cc21 [Compound 17, 2-(isoquinolin-8-yl)-9H-fluoren-9-one]",≤ 50,–,–,–
"O=C1c2ccccc2-c2ccc(-c3cccc4cnccc34)cc21 [Compound 18, 2-(isoquinolin-5-yl)-9H-fluoren-9-one]",–,–,–,"STAT3 transcriptional activity inhibitory effect % inhibition, 50-70% (compound concentration of 1 µM): ○ (50-70%)"
"O=C1c2ccccc2-c2ccc(-c3cccc4nccn34)cc21 [Compound 19, 2-(imidazo[1,2-a]pyridin-5-yl)-9H-fluoren-9-one]",≤ 50,–,–,–
"O=C1c2ccccc2-c2ccc(-c3cccn4cnnc34)cc21 [Compound 20, 2-([1,2,4]triazolo[4,3-a]pyridin-8-yl)-9H-fluoren-9-one]",≤ 50,–,–,–
"c1ccc2c(-c3ccc4c5c([nH]c4c3)CCC5)cncc2c1 [Compound 21, 6-(isoquinolin-4-yl)-1,2,3,4-tetrahydrocyclopenta[b]indole]",–,○ (70% or more),excellent STAT3 activity inhibitory effect,–
"O=C1c2ccccc2-c2ccc(-c3nccc4ccccc34)cc21 [Compound 22, 2-(isoquinolin-1-yl)-9H-fluoren-9-one]",≤ 50,–,–,–
"O=C1c2ccccc2-c2ccc(-c3cccn4ccnc34)cc21 [Compound 23, 2-(imidazo[1,2-a]pyridin-8-yl)-9H-fluoren-9-one]",–,○ (70% or more),excellent STAT3 activity inhibitory effect,–
